Experimental data published in patent publication EP3281632A1, “ARGON FOR USE IN THE PREVENTION OF BOTH CARDIAC AND CEREBRAL INJURY INDUCED BY ISCHEMIA/REPERFUSION FOLLOWING CARDIAC ARREST” (Societa'Italiana Acetilene & Derivati S.I.A.D. S.p.A. in …, priority 2016, dated 2018).

How the values were obtained:
[1] = tested on: cardiac arrest and CPR in the pig; assay: Severe model of cardiac arrest and CPR in the pig, 4 hr ventilation after CPR; type: in vivo; design: circulating levels of hs-cTnT (median): unit not given here
Method: In a severe model of cardiac arrest and CPR in the pig, treatment with inhaled argon allowed for concurrent cardiac and cerebral protection. After 12 min of untreated cardiac arrest and 5 min of CPR, animals were subjected to 4 hr ventilation with (a) 70% argon - 30% 02 or (b) 70% N2 - 30% 02.

[2] = tested on: cardiac arrest and CPR in the rat; assay: Model of cardiac arrest and CPR in the rat, argon ventilation started during CPR; type: in vivo
Method: In a model of cardiac arrest and CPR in the rat, treatment with inhaled argon was initiated early, concurrently with chest compression prior to resuscitation. After 7 min of untreated cardiac arrest, 5 min of CPR were initiated and animals were subjected to ventilation with (a) 70% argon - 30% 02 or (b) 70% N2 - 30% 02. The above ventilation strategies were continued up to 2 hrs following resuscitation.

[3] = tested on: acute myocardial infarction by LAD occlusion in the rat; assay: Model of acute myocardial infarction by LAD occlusion in the rat; type: in vivo
Method: In a model of acute myocardial infarction by LAD occlusion in the rat, ventilation with argon reduced myocardial injury. More in details, the LAD occlusion was removed after 30 min; 5 min before reperfusion, animals were randomized to 1 hour ventilation with: (1) 70% argon - 30% oxygen; or (2) 70% nitrogen - 30% oxygen. […] Moreover, a reduced inflammatory response in terms of neutrophil infiltration in the argon ventilation group compared to control group was observed (72 cells/mm^2 vs. 92 cells/mm^2).

[4] = tested on: left anterior descending coronary artery occlusion (LAD); conditions: rabbits; three 5-min cycles of 70% argon in oxygen prior to 30 min LAD occlusion; in comparison to control ventilation; cited from earlier work
[5] = tested on: cardiac arrest, pigs; conditions: cited from earlier work
[6] = tested on: rats resuscitated after cardiac arrest; conditions: post resuscitation ventilation with 70% argon, cited from earlier work
[7] = during the 4 hr of observation, compared to controls
[8] = argon during CPR and up to 2 hrs after resuscitation, compared to controls

Structure (SMILES): [Ar] [argon]
- Cerebral Performance Category ([1]; 12 min untreated cardiac arrest, 5 min CPR, 4 hr ventilation with 70% argon - 30% 02, control 3.4 ± 1.6): 1.7 ± 1.3
- circulating levels of NSE (median) ([1]; 4 hr ventilation 70% argon - 30% 02, control 21.2 ng/mL, p not significant): 8.5 ng/mL
- circulating levels of hs-cTnT (median) ([1]; 4 hr ventilation 70% argon - 30% 02, control 8015 ng/mL, p < 0.05): 1332
- myocardial infarct size ([1]; after argon treatment, compared to controls): significantly lower
- heart rate [1, 7]: significantly lower
- mean arterial pressure [1, 7]: higher
- stroke volume [1, 7]: higher
- recovery of systolic myocardial function ([1]; evaluated echocardiographically at 96 hr, compared to controls): significantly better recovery
- resuscitation rate ([2]; 7 min untreated cardiac arrest, 5 min CPR with 70% argon - 30% 02 ventilation, control 85%): 93%
- post resuscitation coronary perfusion pressure [2, 8]: higher
- post resuscitation mean arterial pressure [2, 8]: higher
- lactate/pyruvate ratio in the hippocampus ([2]; cerebral microdialysis, compared to controls): lower
- left ventricle ejection fraction ([2]; compared to the control ventilation): trend toward better
- neurological recovery ([2]; compared to those ventilated with nitrogen and oxygen): significantly faster and better
- troponin T release ([2]; trend, compared to the control ventilation): lower
- plasma level of myocardial troponin T ([3]; 30 min LAD occlusion, 1 hour ventilation 70% argon - 30% oxygen from 5 min before reperfusion, after 6 hours, control 7432 ng/l, p < 0.05): 3128 ng/L
- neutrophil infiltration ([3]; LAD occlusion, argon ventilation group, control 92 cells/mm^2): 72 cells/mm^2
- reduction of myocardial infarct size [4]: 22%
- neurological recovery ([5]; 70% argon-30% oxygen after ROSC, in contrast to nitrogen and oxygen): fast and complete
- post resuscitation increase in plasmatic cardiac troponin T ([5]; 8 min untreated cardiac arrest, 5 min CPR, 70% argon-30% oxygen after ROSC): three-fold lower
- brain injury (histopathology) ([5]; compared to control): lesser brain injury
- respiratory exchange or arterial blood gases ([5]; ventilation with argon): did not impair
- neurological deficit score ([6]; at all time points): significant improvements
- neuronal injury (histology) [6]: significant reduction
